According to patent publication EP1247448A2 (priority 1998, dated 1999):
Where “and” joins values, the source holds several entries; their conditions need not be identical. Identical values can stand only once. Like-named read-outs stand apart in the source and are kept apart here.

Tests used:
Cucumber Downy Mildew [1] = tested on: Cucumber Downy Mildew; parameters: species or system Pseudoperonospora cubensis; details: in vivo
[2] = tested on: Phytophthora infestans on potatoes (PLB); format: in vivo; details: Table 5b
Phytophthora capsici = Phytophthora capsici colony growth inhibition on potato dextrose agar (Examples 1 and 2); format: cell-based, Phytophthora capsici (ATCC 15399)
[3] = tested on: tomato late blight (TLB), Phytophthora infestans; format: in vivo; details: for TLB obs. % Control: Table 3a
Tomato Late Blight [4] = format: in vivo, Phytophthora infestans; details: Table 4a
Cucumber Downy Mildew [5] = test: Cucumber downy mildew control on cucumber plants (Example 4); format: in vivo, Pseudoperonospora cubensis; details: Table 4b
Tomato Late Blight [6] = format: in vivo, Phytophthora infestans; details: Table 6a
[7] = tested on: grape downy mildew, Plasmopara viticola; test: Grape downy mildew control on Delaware grapes (Example 6b); format: in vivo; details: Table 6b
Description: Tissue culture produced from Delaware grapes were sprayed with the fungicides. Inoculation with grape downy mildew (GDM) spores having a concentration of 40,000 spores ml was conducted 1 day after the application. Plants were placed in a mist chamber for 24 hrs and then moved to a control temperature chamber for the remainder of the test period. Table 6b -

**Q.** For `O=C1c2ccccc2C(=O)N1SC(Cl)(Cl)Cl` [Cmpd. G, Folpet, reference compound], which “Number of Infection Sites” value (Cucumber Downy Mildew [1]) is on record?
**A.** Its value is 16 and 22.2 and 19.2.

**Q.** And the “% Control Observed” value ([2]; 0.225 Kg ai/ha)?
**A.** Its value is 0%.

**Q.** And the “% Control Observed” value ([2]; 0.45 Kg ai/ha)?
**A.** The value was 3.5%.

**Q.** With `O.O.O.O.O.O=S(=O)([O-])[O-].[Cu+2]` [Compound D, CuSO4·5H2O, reference compound] as the compound, how does the “% Inhibition (Observed)” value (Phytophthora capsici; Table 2, Compound D 100 ppm, Compound A 0 ppm) read?
**A.** Its value is 15.6%.

**Q.** And the “% Inhibition (Observed)” value (Phytophthora capsici; Table 2, Compound D 200 ppm, Compound A 0 ppm)?
**A.** Its value is 47.0%.

**Q.** What about the “% Inhibition (Observed)” value (Phytophthora capsici; Table 2, Compound D 300 ppm, Compound A 0 ppm) of the same compound?
**A.** The value was 59.2%.

**Q.** What does the source list for `CCO[PH](=O)O` [Cmpd. E, Fosetyl-aluminum, reference compound]?
**A.** TLB obs. % Control ([3]; 0.112 kg ai/ha): 30.9%; TLB obs. % Control ([3]; 0.225 kg ai/ha): 14.3%; TLB obs. % Control ([3]; 0.45 kg ai/ha): 57.1%; TLB obs. % Control ([3]; 0.9 kg ai/ha): 54.8%

**Q.** How did the “% Control Observed” value (Tomato Late Blight [4]; 0.063 Kg ai/ha) turn out when `CCCOC(=O)NCCCN(C)C` [Cmpd. F, Propamocarb, reference compound] was run?
**A.** Its value is 0%.

**Q.** And the “% Control Observed” value (Tomato Late Blight [4]; 0.125 Kg ai/ha)?
**A.** The value was 3%.

**Q.** What about the “% Control Observed” value (Tomato Late Blight [4]; 0.25 Kg ai/ha) of the same compound?
**A.** Its value is 17%.

**Q.** What about the “% Control Observed” value (Cucumber Downy Mildew [5]; 0.063 Kg ai/ha) of the same compound?
**A.** The value was 9%.

**Q.** What about the “% Control Observed” value (Cucumber Downy Mildew [5]; 0.125 Kg ai/ha) of the same compound?
**A.** The value was 0%.

**Q.** And the “% Control Observed” value (Cucumber Downy Mildew [5]; 0.25 Kg ai/ha)?
**A.** The value was 27%.

**Q.** For `OP(O)O` [Compound C, Phosphorous Acid, reference compound], which “% Inhibition (Observed)” value (Phytophthora capsici; Table 1, Compound C 70 ppm, Compound A 0 ppm) is on record?
**A.** Its value is 48.3%.

**Q.** And the “% Inhibition (Observed)” value (Phytophthora capsici; Table 1, Compound C 100 ppm, Compound A 0 ppm)?
**A.** The value was 72.1%.

**Q.** `O=[N+]([O-])c1cc(C(F)(F)F)c(Cl)c([N+](=O)[O-])c1Nc1ncc(C(F)(F)F)cc1Cl` [Cmpd. H, Fluazinam, reference compound] was tested. Which “% Control Observed” value (Tomato Late Blight [6]; 0.125 Kg ai/ha) did it give?
**A.** Its value is 20%.

**Q.** And the “% Infection” value (Tomato Late Blight [6]; 0.125 Kg ai/ha)?
**A.** The value was 64%.

**Q.** What about the “% Control Observed” value ([7]; Cmpd. H 0.006 Kg ai/ha) of the same compound?
**A.** Its value is 52%.

**Q.** How did the “% Inhibition (Observed)” value (Phytophthora capsici; Table 1, Compound A 0.2 ppm, Compound C 0 ppm) turn out when `CCC(C)(NC(=O)c1cc(Cl)c(C)c(Cl)c1)C(=O)CCl` (stereo not shown) [Compound A, N-[3'-(1'-chloro-3'-methyl-2'-oxopentan)]-3,5-dichloro-4-methylbenzamide] was run?
**A.** The value was 34.1%.

**Q.** And the “% Inhibition (Observed)” value (Phytophthora capsici; Table 1, Compound A 0.3 ppm, Compound C 0 ppm)?
**A.** Its value is 52.8%.

**Q.** What about the “% Inhibition (Observed)” value (Phytophthora capsici; Table 2, Compound A 0.1 ppm, Compound D 0 ppm) of the same compound?
**A.** The value was 21.6%.

**Q.** What about the “% Inhibition (Observed)” value (Phytophthora capsici; Table 2, Compound A 0.2 ppm, Compound D 0 ppm) of the same compound?
**A.** The value was 31.0%.

**Q.** And the “% Inhibition (Observed)” value (Phytophthora capsici; Table 2, Compound A 0.3 ppm, Compound D 0 ppm)?
**A.** Its value is 44.0%.

**Q.** And the “control of tomato late blight” value ([3]; Example 3a, alone at all rates tested)?
**A.** The value was at least 95%.

**Q.** And the “TLB obs. % Control” value ([3]; 0.0125 kg ai/ha)?
**A.** Its value is 97.1%.

**Q.** And the “TLB obs. % Control” value ([3]; 0.025 kg ai/ha)?
**A.** Its value is 96.7%.

**Q.** What about the “TLB obs. % Control” value ([3]; 0.05 kg ai/ha) of the same compound?
**A.** The value was 96.7%.

**Q.** What about the “TLB obs. % Control” value ([3]; 0.1 kg ai/ha) of the same compound?
**A.** Its value is 97.1%.

**Q.** And the “% Control Observed” value (Tomato Late Blight [4]; 0.006 Kg ai/ha)?
**A.** Its value is 23%.

**Q.** And the “% Control Observed” value (Tomato Late Blight [4]; 0.012 Kg ai/ha)?
**A.** Its value is 20%.

**Q.** And the “% Control Observed” value (Tomato Late Blight [4]; 0.025 Kg ai/ha)?
**A.** The value was 36%.

**Q.** And the “% Control Observed” value (Cucumber Downy Mildew [5]; 0.006 Kg ai/ha)?
**A.** Its value is 56%.

**Q.** And the “% Control Observed” value (Cucumber Downy Mildew [5]; 0.012 Kg ai/ha)?
**A.** The value was 33%.

**Q.** And the “% Control Observed” value (Cucumber Downy Mildew [5]; 0.025 Kg ai/ha)?
**A.** Its value is 45%.

**Q.** And the “% Control Observed” value (Cucumber Downy Mildew [1])?
**A.** Its value is 74.3% and 84.8% and 98.1%.

**Q.** What about the “% Control Observed” value ([2]; 0.05 Kg ai/ha) of the same compound?
**A.** Its value is 12%.

**Q.** What about the “% Control Observed” value ([2]; 0.10 Kg ai/ha) of the same compound?
**A.** The value was 16%.

**Q.** And the “% Control Observed” value (Tomato Late Blight [6]; 0.025 Kg ai/ha)?
**A.** Its value is 84%.

**Q.** And the “% Infection” value (Tomato Late Blight [6]; 0.025 Kg ai/ha)?
**A.** The value was 13.2%.

**Q.** And the “% Control Observed” value ([7]; Cmpd. A 0.006 Kg ai/ha)?
**A.** Its value is 22%.
